Results taken from ChEMBL document CHEMBL1158692, “Lajollamycin, a nitro-tetraene spiro-beta-lactone-gamma-lactam antibiotic from the marine actinomycete Streptomyces nodosus” (J Nat Prod, 2005).
Values after ≈ are worked out from the molar mass of the structure shown.

Key:
Enterococcus faecalis = experiment: Antimicrobial activity against vancomycin-sensitive Enterococcus faecalis after 14 to 16 hrs; type: functional
Escherichia coli = experiment: Antimicrobial activity against Escherichia coli after 14 to 16 hrs; type: functional
Enterococcus faecium = experiment: Antimicrobial activity against vancomycin-resistant Enterococcus faecium after 14 to 16 hrs; type: functional
B16-F10 = experiment: Cytotoxicity against mouse B16F10 cells after 3 to 6 hrs; type: functional, cell-based
Staphylococcus aureus [1] = experiment: Antimicrobial activity against methicillin-sensitive Staphylococcus aureus after 14 to 16 hrs; type: functional
Staphylococcus aureus [2] = experiment: Antimicrobial activity against methicillin-resistant Staphylococcus aureus after 14 to 16 hrs; type: functional
Streptococcus pneumoniae [3] = experiment: Antimicrobial activity against penicillin-resistant Streptococcus pneumoniae after 14 to 16 hrs; type: functional
Streptococcus pneumoniae [4] = experiment: Antimicrobial activity against penicillin-sensitive Streptococcus pneumoniae after 14 to 16 hrs; type: functional

## COC(CC(C)C(O)/C=C/C=C/CNC(=O)C(C)(C)C(O)\C(C)=C/C=C\C=C\C(C)=C(/C)[N+](=O)[O-])C1(O)C(C)C(=O)N(C)C12C(=O)OC2C (stereo not drawn) [LAJOLLAMYCIN]
Enterococcus faecalis
  MIC: 14 µg/mL (≈ 20.4 µM)
Escherichia coli
  MIC: 12 µg/mL (≈ 17.4 µM)
Enterococcus faecium
  MIC: 20 µg/mL (≈ 29.1 µM)
B16-F10
  EC50: 9.6 µM
Staphylococcus aureus [1]
  MIC: 4 µg/mL (≈ 5.82 µM)
Staphylococcus aureus [2]
  MIC: 5 µg/mL (≈ 7.27 µM)
Streptococcus pneumoniae [3]
  MIC: 1.5 µg/mL (≈ 2.18 µM)
Streptococcus pneumoniae [4]
  MIC: 2 µg/mL (≈ 2.91 µM)
